# In PubChem BioAssay AID2305 (GlaxoSmithKline (GSK), 2010):
# Test system: P. falciparum 3D7 growth, pLDH absorbance
# Assay: blood-stage malaria parasite growth potency – strain 3D7, dose response (AID 2305)
row,SMILES,IC50
1,CC(=O)c1cccc2c(NC(=O)Nc3ccc4nccc(N5CCN(C)CC5)c4c3)cccc12,400 nM
2,CCCCc1ccc(-c2c(N)nc(N)nc2CC)cc1,950 nM
3,COCCN(C)c1ccc(C(=O)Nc2ccccc2)cc1NS(=O)(=O)Cc1ccccc1,570 nM
4,Cc1cc(Nc2cccc(C(F)(F)F)c2)nc(NCc2ccccc2)n1,150 nM
5,O=C(NCCCCN1CCC(c2ccc3c(c2OCCN2CCCC2)CCCC3)CC1)c1ccc(-c2ccc(C(F)(F)F)cc2)cc1,450 nM
6,Cc1cc(N2CCC(N(C)C)C2)nc(Nc2ccc(Cl)cc2)n1 (stereo not given),520 nM
7,Oc1ccc(CCCNc2nc(NCc3cccc4ccccc34)nc(N3CCNCC3)n2)cc1,810 nM
8,COc1ccccc1CCNc1nc(C)cc(N[C@@H](CC(C)C)C(=O)NCCc2ccccc2)n1,720 nM
9,O=C(Nc1ccc(Cl)c(C(F)(F)F)c1)Nc1ccc(Cl)c(C(F)(F)F)c1,770 nM
10,COc1ccccc1-c1cc(C(=O)N2CCN(S(=O)(=O)c3ccc(C)cc3)CC2)[nH]n1,1160 nM
11,COCCOc1ccc(Nc2nccc(-c3c(-c4cccc(NC(=O)c5c(F)cccc5F)c4)nn4ccccc34)n2)cc1F,950 nM
12,COc1cccc(C2CCN(CCN3CCC(NC(=O)c4ccc(-c5ccc(C(F)(F)F)cc5)cc4)CC3)CC2)c1,200 nM
13,N#Cc1cccc(CN2CCCN(Cc3cccc(C(=O)Nc4ccc(Cl)cc4)c3)CC2)c1,1180 nM
14,COc1ccc(CNC2CCCC2)cc1-c1ccc(S(=O)(=O)NCCN2CCCC2)s1,800 nM
15,CS(=O)(=O)NCCCNCc1ccc(-c2cccc(-c3nc4ccc(F)cc4[nH]3)c2)cc1,800 nM
16,O=S(=O)(NCCN1CCCC1)c1ccc(-c2cccc(CNCCc3cccs3)c2)cc1,930 nM
17,CCOc1ncccc1CN1CCC(N2CCc3cc(NC(=O)c4cc(C)on4)ccc32)C1 (stereo not given),310 nM
18,Cc1cc(C)c(S(=O)(=O)N2CCCCC(c3cccc(C(F)(F)F)c3)=N2)c(C)c1,460 nM
19,CC1(C)CCC(C)(C)c2c1ccc(C1CCN(CCCCNC(=O)c3ccc(-c4ccc(Cl)cc4)cc3)CC1)c2O,480 nM
20,O=C(Nc1cccc(C(F)(F)F)c1)c1cccc(S(=O)(=O)NCC2CCCN(CC3CCCCC3)C2)c1 (stereo not given),880 nM
21,COc1ccc(C(C(=O)NC2CCN(C[C@H](O)c3ccnc4ccc(OC)cc34)CC2)N2CCN(c3ccc(F)cc3)CC2)cc1 (stereo not given in full),210 nM
22,Cc1ccc(C(=O)Nc2cccc([N+](=O)[O-])c2)cc1S(=O)(=O)N1CC(C)CC(C)C1 (stereo not given),790 nM
23,Fc1ccc2[nH]c3c(NCCN4CCCCC4)ncnc3c2c1,830 nM
24,CCCC(CNCc1cccc(OC(F)(F)F)c1)CNc1cc(=O)c2ccccc2[nH]1 (stereo not given),560 nM
25,CCCCNS(=O)(=O)c1ccc(NC(=O)c2cc([N+](=O)[O-])ccc2Cl)cc1,900 nM

row,SMILES,IC50
1,CCCNC(=O)C1CCN(C(c2ccc(Cl)cc2)c2ccc(Cl)cc2)CC1,480 nM
2,O=C(O)CNCC(O)c1ccccc1 (stereo not given),180 nM
3,FC(F)(F)c1ccc2nc(-c3ccc(-c4cccc(CNCC5CCCO5)c4)s3)[nH]c2c1 (stereo not given),370 nM
4,O=C(/C=C/c1ccccc1Cl)Nc1ccc(Br)c(OCCN2CCN(CCN3CCCC3)CC2)c1,650 nM
5,Cc1cccc2[nH]c(-c3cccc(-c4ccc(NC(=O)Nc5ccc6c(c5)OCO6)cc4)c3)nc12,140 nM
6,c1ccc(CCNCc2ccc(-c3ccc(CNC4CCN(Cc5ccccc5)CC4)cc3)nc2)cc1,450 nM
7,CCC1(CC)N=C(N)N=C(N)N1OCc1ccc(Cl)c(Cl)c1,60 nM
8,O=[N+]([O-])c1cccc(NC(=S)N2CCCN(Cc3ccc(C(F)(F)F)cc3)CC2)c1,1200 nM
9,CC(Cc1ccc(OCCN2CCN(c3cccc(C(F)(F)F)c3)CC2)cc1)NCC(O)c1cccc(C(F)(F)F)c1 (stereo not given),180 nM
10,O=S(=O)(NCCN1CCCC1)c1ccc(-c2cccc(CNC3Cc4ccccc4C3)c2)cc1,620 nM
11,CCc1cc2c(N)nc(N)nc2nc1-c1ccccc1,950 nM
12,Cc1cc(NCCC(=O)NCc2cccc(F)c2)nc(Nc2ccccc2)n1,1050 nM
13,CN(C)C(=O)n1cnc(S(=O)(=O)N(C)c2ccc(Cl)cc2)n1,770 nM
14,CN(C)CC(=O)N(Cc1ccc(Cl)c(Cl)c1)Cc1csc(-c2ccc(CNCc3ccccc3)cc2)n1,1050 nM
15,O=C(NC1CCCCN(Cc2ccc3c(c2)OCCO3)C1)c1cc(-c2ccccc2F)cs1 (stereo not given),1050 nM
16,O=c1cc(NCCCNCc2ccccc2-c2ccccc2)[nH]c2ccccc12,980 nM
17,CCCCCC(C)C(C)c1cc(O)c2c(c1)OC(C)(C)CC2(O)c1ccnn1C (stereo not given),960 nM
18,O=C(C=Cc1ccc(Cl)c(Cl)c1)NCCCCCN1CCC(CCNC(=O)c2sc3ccccc3c2Cl)CC1,1010 nM
19,CCCNC(=O)c1ccnc(-c2ccc(CNC3Cc4ccccc4C3)cc2)c1,940 nM
20,Cc1cc(OCc2ccncc2)cc2c1C(=O)CC(C)(C)O2,180 nM
21,COc1ccc(NC(=O)NC2CCN(c3ccnc4ccccc34)C2)cc1 (stereo not given),870 nM
22,O=C(Cc1cnc[nH]1)Nc1cccc(-c2ccc(-c3nc4ccccc4[nH]3)cc2)c1,760 nM
23,CC(C)CCNc1nc(NCCc2ccccc2)c2cc(O)ccc2n1,240 nM
24,CC(C)(C)c1cc(C(=O)N2CCC(c3ccccn3)CC2)n(Cc2ccccc2)n1,960 nM
25,Cc1cccc(C(=O)Nc2ccnc(N3CCC(N(C)Cc4ccc(C#N)cc4)CC3)c2)c1,910 nM

row,SMILES,IC50
1,COc1ccccc1N1CCN(CCCCNC(=O)c2ccc(NC(=O)c3ccc4ccccc4c3)cc2)CC1,800 nM
2,NCCCNc1nc(Nc2ccc(C(F)(F)F)cc2F)c2c(=O)[nH]ccc2n1,1050 nM
3,COc1ccc(NS(=O)(=O)c2ccccc2Br)cc1N1CCN(C)CC1,970 nM
4,Cc1cccc(C(=O)Nc2ccnc(N3CCC(N(C)Cc4cccc(O)c4)CC3)c2)c1,920 nM
5,CNC(=O)Cc1ccc(C(=O)Nc2cccc(-c3csc(-c4nc5ccccc5[nH]4)c3)c2)cc1,270 nM
6,COc1cc(C)nc2ccc(NC(=O)Nc3ccccc3[N+](=O)[O-])cc12,840 nM
7,Cc1nc2ccc([N+](=O)[O-])cc2c(=O)n1OCc1ccccc1,210 nM
8,COc1ccc(-c2cnc3ccc(NCCCO)nn23)cc1OC,670 nM
9,O=C(NCc1ccco1)c1ccc(S(=O)(=O)c2ccc(Cl)cc2)cc1,450 nM
10,CC[C@H]1CN2CC[C@H]1C[C@H]2[C@H](O)c1cc(-c2cccc(Cl)c2)nc2ccc(OC)cc12,170 nM
11,Cc1ccccc1C(=O)NC(NC(=S)Nc1ccc([N+](=O)[O-])cc1)C(Cl)(Cl)Cl (stereo not given),740 nM
12,COc1cc(NC(=O)/C=C/c2cc3ccccc3n2C)ccc1OCCN(C(C)C)C(C)C,390 nM
13,NC(N)=Nc1ccc(OCCCCCOc2ccc(N=C(N)N)c(Cl)c2)cc1Cl,860 nM
14,CC(C)(C)C/C=C\c1ccc(C(=O)NCC2CC2)cc1,850 nM
15,O=C(/C=C/c1ccccc1Cl)Nc1ccc(Br)c(OCCN2CCN(CCN3CCOCC3)CC2)c1,760 nM
16,Clc1ccc(Cl)c2[nH]c(CNCCCNc3nc4ccccc4[nH]3)cc12,160 nM
17,CC(C)(C)C1CCC(CC2=C(C(=O)O)c3ccccc3C2=O)CC1 (stereo not given),1100 nM
18,Cc1[nH]c(C)c(-c2csc3ccccc23)c(=O)c1Cl,1020 nM
19,O=C(COc1ccccc1)NC1CCN(c2ccnc3cc(Cl)ccc23)C1 (stereo not given),700 nM
20,Cc1cccc2[nH]c(-c3ccc(-c4cccc(CN5CCC(C(N)=O)CC5)c4)cc3)nc12,1770 nM
21,CCN(CC)CCN(Cc1ccc(-c2ccc(C(F)(F)F)cc2)cc1)C(=O)Cn1c(CCc2c(F)cc(F)cc2F)nc(=O)c2ccccc21,1040 nM
22,O=C(/C=C/c1ccc(Cl)c(Cl)c1)NC1CCN(Cc2ccc(O)cc2)CC1,690 nM
23,Cc1ccccc1OCC(O)CN1CCC(C2CCN(CC(O)COc3ccccc3C)CC2)CC1 (stereo not given),310 nM
24,CCN(CCNc1nc(NCCc2cnc[nH]2)nc(N(CCC#N)Cc2ccccc2)n1)c1cccc(C)c1,710 nM
25,COc1ccc2ncc(C)c(CCN3CCC(NCc4ccc5c(n4)NC(=O)CS5)CC3)c2c1,550 nM

row,SMILES,IC50
1,O=C(N[C@@H](Cc1ccccc1)[C@H](O)CNC1CCOCC1)c1cc(C2CCCC2)cc(N2CCCCS2(=O)=O)c1,200 nM
2,CC1CN(Cc2ccccc2)CCN1c1ccc(NC(=O)c2ccc(F)cc2)cc1 (stereo not given),1010 nM
3,Cc1ccc2c(O)c([N+](=O)[O-])c(=O)[nH]c2c1,420 nM
4,CC(C)Nc1nc(NC2CCCCC2)nc(N2CCCCCCC2)n1,1090 nM
5,Cc1[nH]c(C)c(-c2ccc(-c3ccccc3)nc2)c(=O)c1Br,660 nM
6,Cc1[nH]c(C)c(-c2cccc(Oc3ccc(Cl)cc3)c2)c(=O)c1Br,70 nM
7,CN1C(=O)OC[C@@H]1Cc1ccc2[nH]cc(C3=CCN(Cc4ccccc4)CC3)c2c1,420 nM
8,CCCC1N=C(N)N=C(N)N1c1ccc(C)cc1 (stereo not given),100 nM
9,N#Cc1ccc(-c2ccc(C(=O)NCCCCN3CCC(c4cn(CCO)c5ccccc45)CC3)cc2)cc1,950 nM
10,N#Cc1c(F)cc(N2CCC(NCC[C@H](N)Cc3ccc(F)c(F)c3)CC2)cc1F,860 nM
11,COc1ccc2c(NN=Cc3ccc([N+](=O)[O-])cc3)ccnc2c1,340 nM
12,CC(C)CNCc1cccc(-c2cccc(CN(CCCN3CCN(C)CC3)C(=O)CCC3CCCC3)c2)c1,620 nM
13,CNCCNCc1cccc(-c2ccc(-c3nc4c(C)cccc4[nH]3)s2)c1,950 nM
14,COc1cc(CNC[C@@H](O)[C@H](Cc2ccccc2)NC(=O)c2cc(C3CCCC3)cc(N3CCCS3(=O)=O)c2)cc(OC)c1,1240 nM
15,C(=NNc1nc2ccccc2[nH]1)c1ccccc1OCc1ccccc1,260 nM
16,Cc1cc(N(C)C)nc(Nc2ccc(NC(=O)Nc3ccccc3)cc2)n1,130 nM
17,CCN(CC)C(=O)c1cccc(/C=C/c2ccc(-c3c(C)[nH]c(C)c(Cl)c3=O)cc2)c1,260 nM
18,CCN(CC)c1nc(Nc2cc(C)ccc2C)nc(Nc2ccccc2O)n1,640 nM
19,COc1ccc(CNc2ccnc(-n3cnc4cc(C)c(C)cc43)n2)cc1Cl,270 nM
20,COc1ccc(CNCCCCCCCNCc2ccc(Cl)c(Cl)c2)cc1Cl,1220 nM
21,CCc1ccc(NC(=O)c2ccc(CN3CCCN(Cc4cccc(Cl)c4)CC3)cc2)cc1,1110 nM
22,COc1ccc(CN2CCCN(Cc3cccc(C(=O)Nc4ccc(C)c(F)c4)c3)CC2)cc1,1310 nM
23,CCCC(C)N(Cc1ccc(C(C)(C)C)cc1)C(=O)c1cccc(OC)c1 (stereo not given),340 nM
24,COc1ccc(-c2cccc(NC(=O)c3cccc(C#N)c3)c2)cc1CNC(C)C,690 nM
25,COc1cc(NC(=O)CCCN2CCN(c3cccc(Cl)c3Cl)CC2)ccc1N1CCN(C(C)C)CC1,950 nM
